Results taken from ChEMBL document CHEMBL5352436, “Triterpenoid pyrazines and pyridines - Synthesis, cytotoxicity, mechanism of action, preparation of prodrugs” (Eur J Med Chem, 2022).
The source made the active and inactive calls. The rule behind the calls is not given here.

Legend:
[1] = system: CCRF-CEM; assay: Cytotoxicity against human CCRF-CEM cells assessed as reduction in cell viability incubated for 72 hrs by MTS assay; assay type: functional, cell-based
[2] = system: CEM-DNR; assay: Cytotoxicity against human CEM-DNR cells assessed as reduction in cell viability incubated for 72 hrs by MTS assay; assay type: functional, cell-based
[3] = system: K562; assay: Cytotoxicity against human K562 cells assessed as reduction in cell viability incubated for 72 hrs by MTS assay; assay type: functional, cell-based; conditions: K562, 72 h
[4] = Cytotoxicity against human K562-Tax cells assessed as reduction in cell viability incubated for 72 hrs by MTS assay; assay type: functional, cell-based
[5] = system: HCT-116; assay: Cytotoxicity against human HCT-116 cells assessed as reduction in cell viability incubated for 72 hrs by MTS assay; assay type: functional, cell-based; conditions: HCT-116, 72 h
[6] = Cytotoxicity against human HCT116-p53-null cells assessed as reduction in cell viability incubated for 72 hrs by MTS assay; assay type: functional, cell-based
[7] = system: A549; assay: Cytotoxicity against human A549 cells assessed as reduction in cell viability incubated for 72 hrs by MTS assay; assay type: functional, cell-based; conditions: A549, 72 h
[8] = system: U2OS; assay: Cytotoxicity against human U2OS cells assessed as reduction in cell viability incubated for 72 hrs by MTS assay; assay type: functional, cell-based
[9] = Cytotoxicity against human BJ cells assessed as reduction in cell viability incubated for 72 hrs by MTS assay; assay type: toxicity, cell-based
[10] = Cytotoxicity against human MRC5 cells assessed as reduction in cell viability incubated for 72 hrs by MTS assay; assay type: toxicity, cell-based
[11] = Drug localization in human CCRF-CEM cells assessed as MT-CO2 signal at 10 uM incubated for 4 hrs by click reaction analysis; assay type: ADME, cell-based
[12] = system: CCRF-CEM; assay: Induction of apoptosis in human CCRF-CEM cells assessed as viable cells at 1 time IC50 incubated for 24 hrs by Annexin V and propidium iodide staining based flow cytometry analysis […]; assay type: functional
[13] = system: CCRF-CEM; assay: Induction of apoptosis in human CCRF-CEM cells assessed as early apoptotic cells at 1 time IC50 incubated for 24 hrs by Annexin V and propidium iodide staining based flow cytometry analysis (reference value: […]); assay type: functional
[14] = system: CCRF-CEM; assay: Induction of apoptosis in human CCRF-CEM cells assessed as late apoptotic cells at 1 time IC50 incubated for 24 hrs by Annexin V and propidium iodide staining based flow cytometry analysis (reference value: […]); assay type: functional
[15] = system: CCRF-CEM; assay: Induction of apoptosis in human CCRF-CEM cells assessed as necrotic cells at 1 time IC50 incubated for 24 hrs by Annexin V and propidium iodide staining based flow cytometry analysis (reference value: 0.0%); assay type: functional
[16] = system: CCRF-CEM; assay: Induction of apoptosis in human CCRF-CEM cells assessed as viable cells at 5 times IC50 incubated for 24 hrs by Annexin V and propidium iodide staining based flow cytometry analysis […]; assay type: functional
[17] = system: CCRF-CEM; assay: Induction of apoptosis in human CCRF-CEM cells assessed as early apoptotic cells at 5 times IC50 incubated for 24 hrs by Annexin V and propidium iodide staining based flow cytometry analysis […]; assay type: functional
[18] = system: CCRF-CEM; assay: Induction of apoptosis in human CCRF-CEM cells assessed as late apoptotic cells at 5 times IC50 incubated for 24 hrs by Annexin V and propidium iodide staining based flow cytometry analysis […]; assay type: functional
[19] = system: CCRF-CEM; assay: Induction of apoptosis in human CCRF-CEM cells assessed as necrotic cells at 5 times IC50 incubated for 24 hrs by Annexin V and propidium iodide staining based flow cytometry analysis […]; assay type: functional
[20] = system: CCRF-CEM; assay: Induction of apoptosis in human CCRF-CEM cells assessed as accumulation of Bax protein expression at 1 to 5 times IC50 incubated for 24 hrs by Western blot analysis; assay type: functional, cell-based
[21] = system: CCRF-CEM; assay: Induction of apoptosis in human CCRF-CEM cells assessed as accumulation of Bid protein expression at 1 to 5 times IC50 incubated for 24 hrs by Western blot analysis; assay type: functional, cell-based
[22] = system: CCRF-CEM; assay: Induction of apoptosis in human CCRF-CEM cells assessed as PARP cleavage at 1 to 5 times IC50 incubated for 24 hrs by Western blot analysis; assay type: functional, cell-based
[23] = system: CCRF-CEM; assay: Induction of apoptosis in human CCRF-CEM cells assessed as increase in Noxa expression at 1 to 5 times IC50 incubated for 24 hrs by Western blot analysis; assay type: functional, cell-based
[24] = system: CCRF-CEM; assay: Induction of apoptosis in human CCRF-CEM cells assessed as decrease in c-Myc expression at 1 to 5 times IC50 incubated for 24 hrs by Western blot analysis; assay type: functional, cell-based
[25] = system: CCRF-CEM; assay: Induction of mitochondrial damage in human CCRF-CEM cells at >= 10 uM incubated for 4 hrs by light microscopic analysis; assay type: functional, cell-based
[26] = system: HCT-116; assay: Antitumor activity in human HCT-116 cells cultured as spheroids assessed as inhibition of cell growth at 10 uM incubated for 3 days; assay type: functional; set-up: scale not given: the % may be the effect or the level left; conditions: time 3 day
[27] = system: HeLa; assay: Antitumor activity in human HeLa cells cultured as spheroids assessed as inhibition of spheroid opening at 1 uM incubated for 3 days; assay type: functional, cell-based; conditions: time 3.0 day
[28] = Chemical stability in PBS buffer at pH 7.4 assessed as compound remaining measured at 15 mins by RF-MS analysis; assay type: physicochemical; conditions: read-out: Stability
[29] = Chemical stability in PBS buffer at pH 7.4 assessed as compound remaining measured at 30 mins by RF-MS analysis; assay type: physicochemical; conditions: read-out: Stability
[30] = Chemical stability in PBS buffer at pH 7.4 assessed as compound remaining measured at 60 mins by RF-MS analysis; assay type: physicochemical; conditions: read-out: Stability
[31] = Chemical stability in PBS buffer at pH 7.4 assessed as compound remaining measured at 120 mins by RF-MS analysis; assay type: physicochemical; conditions: read-out: Stability
[32] = Stability in human plasma assessed as compound remaining at 2 uM measured at 15 mins by RF-MS analysis; assay type: ADME, cell-free; conditions: read-out: Stability
[33] = Stability in human plasma assessed as compound remaining at 2 uM measured at 30 mins by RF-MS analysis; assay type: ADME, cell-free; conditions: read-out: Stability
[34] = Stability in human plasma assessed as compound remaining at 2 uM measured at 60 mins by RF-MS analysis; assay type: ADME, cell-free; conditions: read-out: Stability
[35] = Stability in human plasma assessed as compound remaining at 2 uM measured at 120 mins by RF-MS analysis; assay type: ADME, cell-free; conditions: read-out: Stability
[36] = Stability in human liver microsomes assessed as compound remaining at 2 uM measured at 15 mins in presence of NADPH by RF-MS analysis; assay type: ADME, Microsome; conditions: read-out: Stability
[37] = Stability in human liver microsomes assessed as compound remaining at 2 uM measured at 30 mins in presence of NADPH by RF-MS analysis; assay type: ADME, Microsome; conditions: read-out: Stability
[38] = Stability in human liver microsomes assessed as compound remaining at 2 uM measured at 60 mins in presence of NADPH by RF-MS analysis; assay type: ADME, Microsome; conditions: read-out: Stability
[39] = Plasma protein binding in human at 10 uM by rapid equilibrium dialysis based RF-MS analysis; assay type: ADME, cell-free; conditions: read-out: PB (converted)
[40] = Apparent permeability of the compound in MDCK-MDR1 cells at 10 uM incubated for 1 hr by RF-MS analysis; assay type: ADME, cell-based, Canis lupus familiaris; conditions: dog
[41] = Efflux ratio of apparent permeability across basolateral to apical side over apical to basolateral side in MDCK-MDR1 cells; assay type: ADME, cell-based, Canis lupus familiaris; conditions: dog
[42] = Apparent permeability of the compound in MDCK-MDR1 cells assessed as drug recovery at 10 uM incubated for 1 hr by RF-MS analysis; assay type: ADME, cell-based, Canis lupus familiaris; conditions: dog, read-out: Drug recovery
[43] = system: CCRF-CEM; assay: Induction of mitochondrial changes in human CCRF-CEM cells at 10 uM incubated for 4 hrs by electron microscopic analysis; assay type: functional, cell-based

With `C#CCOC(=O)[C@]12CC[C@@H](C(=C)C)[C@@H]1[C@H]1CC[C@@H]3[C@@]4(C)Cc5nccnc5C(C)(C)[C@@H]4CC[C@@]3(C)[C@]1(C)CC2` the IC50 [1] was 45000 nM, the IC50 [2] was 50000 nM and the IC50 [3] was > 50000 nM. For the same molecule, the IC50 [4] was > 50000 nM, the IC50 [5] was > 50000 nM and the IC50 [6] was > 50000 nM. For the same molecule, the IC50 [7] was > 50000 nM, the IC50 [8] was > 50000 nM and the IC50 at 72 h [9] was > 50000 nM. The IC50 at 72 h [10] was > 50000 nM and the Drug uptake [11] was “Not Active”.
Work on `C=C(C=O)[C@@H]1CC[C@]2(C(=O)O)CC[C@]3(C)[C@H](CC[C@@H]4[C@@]5(C)Cc6nccnc6C(C)(C)[C@@H]5CC[C@]43C)[C@@H]12` yielded an Activity [12] of 85.1%, an Activity [13] of 5.5% and an Activity [14] of 3.6%. For the same molecule, the Activity [15] was 5.8%, the Activity [16] was 2.7% and the Activity [17] was 54%. The Activity [18] was 42.8%, the Activity [19] was 0.5% and the Activity [20] was “Active”. For the same molecule, the Activity [21] was “Active”, the Activity [22] was “Active” and the Activity [23] was “Active”. For the same molecule, the Activity [24] was “Active”, the Activity [25] was “inactive” and the Activity [26] was 100%. For the same molecule, the Activity [27] was “Active”.
Work on `C#CCOC(=O)[C@]12CC[C@@H](C(=C)C=O)[C@@H]1[C@H]1CC[C@@H]3[C@@]4(C)Cc5nccnc5C(C)(C)[C@@H]4CC[C@@]3(C)[C@]1(C)CC2` yielded an IC50 [1] of 430 nM, an IC50 [2] of 1700 nM and an IC50 [3] of 1600 nM. It also gave an IC50 [4] of 1400 nM, an IC50 [5] of 7000 nM and an IC50 [6] of 6300 nM. The IC50 [7] was 1700 nM, the IC50 [8] was 1400 nM and the IC50 at 72 h [9] was 7200 nM. The IC50 at 72 h [10] was 6600 nM and the Drug uptake [11] was “Active”.
For `C=C(C=O)[C@@H]1CC[C@]2(C(=O)OCc3cn([C@H]4O[C@H](COC(C)=O)[C@@H](OC(C)=O)[C@H](OC(C)=O)[C@H]4OC(C)=O)nn3)CC[C@]3(C)[C@H](CC[C@@H]4[C@@]5(C)Cc6nccnc6C(C)(C)[C@@H]5CC[C@]43C)[C@@H]12` (stereo in doubt), the IC50 [1] was 750 nM, the IC50 [2] was 1500 nM and the IC50 [3] was 1200 nM. For the same molecule, the IC50 [4] was 2700 nM, the IC50 [5] was 1500 nM and the IC50 [6] was 1700 nM. It also gave an IC50 [7] of 1800 nM, an IC50 [8] of 1600 nM and an IC50 at 72 h [9] of 2300 nM. The IC50 at 72 h [10] was 1800 nM, the remaining at 0.25 h [28] was 99.9% and the remaining at 0.5 h [29] was 91.1%. For the same molecule, the remaining at 1 h [30] was 87.8%, the remaining at 2 h [31] was 85.2% and the remaining at 0.25 h, 2 µM [32] was 104%. The remaining at 0.5 h, 2 µM [33] was 97.2%, the remaining at 1 h, 2 µM [34] was 88.7% and the remaining at 2 h, 2 µM [35] was 88.5%. It also gave a remaining at 0.25 h, 2 µM [36] of 96.8%, a remaining at 0.5 h, 2 µM [37] of 95.7% and a remaining at 1 h, 2 µM [38] of 58.9%. For the same molecule, the fraction unbound at 10 µM [39] was 0.0017, the Papp at 1 h, 10 µM [40] was 0.12 ×10⁻⁶ cm/s and the efflux ratio [41] was 4.49. For the same molecule, the recovery at 1 h, 10 µM [42] was 77.6%, the Activity [12] was 18.1% and the Activity [13] was 53.8%. For the same molecule, the Activity [14] was 23.9%, the Activity [15] was 4.1% and the Activity [16] was 5.3%. For the same molecule, the Activity [17] was 56%, the Activity [18] was 37.7% and the Activity [19] was 1%. For the same molecule, the Activity [20] was “Active”, the Activity [21] was “Active” and the Activity [22] was “Active”. The Activity [23] was “Active”, the Activity [24] was “Active” and the Activity [26] was 100%. The Activity [27] was “Active”.
Molecule `C=C(C)[C@@H]1CC[C@]2(C(=O)O)CC[C@]3(C)[C@H](CC[C@@H]4[C@@]5(C)Cc6nccnc6C(C)(C)[C@@H]5CC[C@]43C)[C@@H]12` has an Activity [12] of 92.3%, an Activity [13] of 1.7% and an Activity [14] of 2.2%. For the same molecule, the Activity [15] was 3.7%, the Activity [16] was 92% and the Activity [17] was 0.8%. The Activity [18] was 2.6%, the Activity [19] was 4.5% and the Activity [25] was “inactive”. The Activity [43] was “Active”, the Activity [26] was 100% and the Activity [27] was “Active”.
